Some test systems named below: ACHN; A498; OVCAR-4; HOP-62; HCC 2998; NCI-H226; TK-10; T47D; SK-MEL-5; 786-0; HL-60; MDA-MB-231; SK-OV-3; COLO 205; SNB-75; HT-29; A549; HCT-15; IGROV-1; DU-145.
Holding throughout (test): inhibition of tumour cell growth, NCI panel, 48 h

The structures appear in SMILES notation.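 Values below derive from 48-hour exposures of cells grown in 96-well plates, with endpoints linearly interpolated between the two concentrations bracketing the appropriate inhibition level. At the GI50, growth is halved.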 Active and inactive are the calls of the source. Cut-off read from the data, not from the text of the source: active = GI50 up to about 1.1 µM and inactive = higher.

As to `C=C1C(=O)O[C@@H]2C[C@@H](C)[C@@H]3C=CC(=O)[C@@]3(C)[C@@H](OC(=O)CCCC(=O)O[C@H]3[C@@H]4C(=C)C(=O)O[C@@H]4C[C@@H](C)[C@@H]4C=CC(=O)[C@]43C)[C@H]12`, the GI50 with ACHN was 0.0266 µM (active); in the experiment with A498, 0.181 µM (active); in the experiment on OVCAR-4, 0.0455 µM (active); with HOP-62, 1.04 µM (active); with HCC 2998, 0.624 µM (active); in the experiment with NCI-H226, 0.505 µM (active). The GI50 with TK-10 was 0.0682 µM (active); in the experiment with T47D, 0.0214 µM (active); with SK-MEL-5, 0.134 µM (active); with 786-0, 0.0171 µM (active); in the experiment on HL-60, < 0.01 µM (active); in the experiment with MDA-MB-231, 0.0284 µM (active). Also, the GI50 was 1.35 µM (inactive) in the experiment on SK-OV-3; 0.0197 µM (active) in the experiment on COLO 205; 0.113 µM (active) with SNB-75; 0.0352 µM (active) in the experiment with HT-29; 1.63 µM (inactive) with A549; 0.0335 µM in the experiment with HCT-15. Besides, the GI50 was 0.112 µM (active) in the experiment on IGROV-1 and 0.28 µM (active) in the experiment on DU-145.
`C/C(=N\NC(=S)NC1CCCC1)c1ccccn1`: the GI50 with ACHN is < 0.01 µM (active); in the experiment with A498, 0.65 µM (active); in the experiment with OVCAR-4, 0.135 µM (active); in the experiment on HOP-62 it was < 0.017 µM (active); in the experiment on HCC 2998 it was 0.515 µM (active); in the experiment on NCI-H226, 0.0416 µM (active). Besides, the GI50 with TK-10 was 0.202 µM (active); in the experiment on T47D, < 0.01 µM (active); in the experiment on SK-MEL-5, 0.205 µM (active); in the experiment on 786-0, 0.0467 µM (active); with HL-60, < 0.01 µM (active); in the experiment with MDA-MB-231, 1.08 µM (active). The GI50 in the experiment on SK-OV-3 was 0.1 µM (active); in the experiment with COLO 205 it was < 0.01 µM (active); in the experiment on SNB-75 it was 2.25 µM (inactive); in the experiment with HT-29, < 0.01 µM (active); in the experiment with A549, 0.0991 µM (active); in the experiment with HCT-15 it was under 0.01 µM. Besides, the results for the GI50 in the experiment on IGROV-1 and in the experiment with DU-145 were < 0.01 µM (active) and 0.9 µM (active), respectively.
As for `O=C1C=C(N2CCN(CCOCCO)CC2)C(=O)c2c(O)ccc(O)c21`, the GI50 in the experiment on ACHN was 7.4 µM (inactive); in the experiment with A498, 14.4 µM (inactive); with OVCAR-4, 3.76 µM (inactive); in the experiment on HOP-62 it was 17.9 µM (inactive); with HCC 2998 it was 2.7 µM (inactive); with NCI-H226 it was 16.9 µM (inactive). In addition, the GI50 was 9.64 µM (inactive) in the experiment with TK-10; 5.65 µM (inactive) in the experiment with T47D; 1.72 µM (inactive) in the experiment with SK-MEL-5; 8.55 µM (inactive) in the experiment on 786-0; 2.52 µM (inactive) with HL-60; 7.35 µM (inactive) in the experiment on MDA-MB-231. Moreover, the GI50 in the experiment with SK-OV-3 is 20.6 µM (inactive); with COLO 205 it was 1.38 µM (inactive); in the experiment with SNB-75 it was 16.6 µM (inactive); in the experiment on HT-29, 4.48 µM (inactive); in the experiment on A549, 3.56 µM (inactive); with HCT-15 it was 1.64 µM. The GI50 in the experiment on IGROV-1 is 3.74 µM (inactive); in the experiment with DU-145 it was 3.42 µM (inactive).
Take `O=C1C=CC(=O)C(CNc2ccc(C(=O)OC34CC5CC(CC(C5)C3)C4)cc2)=C1Br`: the GI50 in the experiment on ACHN is 14.6 µM (inactive); with A498, 17.9 µM (inactive); in the experiment with OVCAR-4, 5.19 µM (inactive); with HOP-62, 19 µM (inactive); with HCC 2998, 12.4 µM (inactive); in the experiment on NCI-H226, 16.7 µM (inactive). Also, the GI50 in the experiment with TK-10 is 13.9 µM (inactive); in the experiment on T47D it was 3.33 µM (inactive); with SK-MEL-5, 9.31 µM (inactive); in the experiment on 786-0, 13.2 µM (inactive); with HL-60, 1.66 µM (inactive); in the experiment on MDA-MB-231, 10.2 µM (inactive). The GI50 in the experiment with SK-OV-3 is 17.3 µM (inactive); in the experiment on COLO 205, 7.29 µM (inactive); in the experiment with SNB-75 it was 6.15 µM (inactive); in the experiment with HT-29 it was 5.01 µM (inactive); in the experiment on A549, 13.3 µM (inactive); in the experiment with HCT-15, 5.19 µM. In addition, the GI50 in the experiment with IGROV-1 was 3.73 µM (inactive); with DU-145, 23.6 µM (inactive).
Consider `CCOC(=O)C#Cc1cccc(C#CC(=O)OCC)c1`, for which the GI50 in the experiment with ACHN was 6.03 µM (inactive); in the experiment on A498 it was 12.5 µM (inactive); in the experiment with OVCAR-4, 3.59 µM (inactive); with HOP-62, 5.69 µM (inactive); with HCC 2998, 0.624 µM (active); with NCI-H226, 6.58 µM (inactive). The GI50 in the experiment on TK-10 is 5.47 µM (inactive); with T47D it was 42.3 µM (inactive); in the experiment with SK-MEL-5 it was 4.25 µM (inactive); in the experiment on 786-0, 4.47 µM (inactive); in the experiment on HL-60, 1.8 µM (inactive); in the experiment with MDA-MB-231, 5.79 µM (inactive). Besides, the GI50 was 7.55 µM (inactive) in the experiment on SK-OV-3; 5.32 µM (inactive) with COLO 205; 0.0248 µM (active) in the experiment with SNB-75; 4.81 µM (inactive) in the experiment with HT-29; 6.53 µM (inactive) in the experiment on A549; 3.31 µM in the experiment on HCT-15. Besides, the GI50 in the experiment on IGROV-1 is 18.2 µM (inactive); in the experiment with DU-145 it was 6.52 µM (inactive).
Regarding `COC(=O)CCC(=O)NC1=C(Nc2ccc(OC)cc2)C(=O)c2ccccc2C1=O`, the GI50 was 15.4 µM (inactive) in the experiment with ACHN; 19.2 µM (inactive) in the experiment with A498; 11.8 µM (inactive) in the experiment with OVCAR-4; 18.7 µM (inactive) in the experiment on HOP-62; 20.1 µM (inactive) in the experiment on HCC 2998; 17.7 µM (inactive) in the experiment on NCI-H226. Moreover, the GI50 in the experiment with TK-10 is 32.7 µM (inactive); in the experiment with T47D, 14.6 µM (inactive); in the experiment on SK-MEL-5, 1.83 µM (inactive); with 786-0, 17.9 µM (inactive); in the experiment on HL-60, 10.8 µM (inactive); with MDA-MB-231, 10.7 µM (inactive). Moreover, the GI50 in the experiment on SK-OV-3 is 23.7 µM (inactive); in the experiment with COLO 205, 14.5 µM (inactive); with SNB-75, 2.52 µM (inactive); with HT-29 it was 12.6 µM (inactive); with A549, 14 µM (inactive); in the experiment on HCT-15, 7.18 µM. Also, the GI50 in the experiment on IGROV-1 was 11.9 µM (inactive); in the experiment with DU-145, 14 µM (inactive).
As to `CCCC(=O)Nc1cn(COC)c(C(=O)N2C[C@@H]3C[C@]34C2=CC(=O)c2[nH]cc(C)c24)n1`, the GI50 was 3.26 µM (inactive) with ACHN; 9.48 µM (inactive) with A498; 7.82 µM (inactive) in the experiment with OVCAR-4; 13.6 µM (inactive) in the experiment on HOP-62; 5.31 µM (inactive) with HCC 2998; 10.5 µM (inactive) with NCI-H226. Also, the GI50 in the experiment with TK-10 was 7.96 µM (inactive); in the experiment on T47D, 4.85 µM (inactive); with SK-MEL-5 it was 4.36 µM (inactive); with 786-0 it was 5.15 µM (inactive); with HL-60, 1.07 µM (active); in the experiment on MDA-MB-231 it was 8.47 µM (inactive). Besides, the GI50 was 11.2 µM (inactive) in the experiment on SK-OV-3; 7.91 µM (inactive) in the experiment on COLO 205; 10.2 µM (inactive) with SNB-75; 7.76 µM (inactive) in the experiment on HT-29; 10.8 µM (inactive) with A549; 13.7 µM in the experiment with HCT-15. The GI50 is 9.25 µM (inactive) with IGROV-1 and 1.53 µM (inactive) in the experiment on DU-145.
Take `O=C1CCSc2nc(-c3ccc4c(c3)OCO4)nn21`: the GI50 in the experiment with ACHN, in the experiment on A498, in the experiment on OVCAR-4, in the experiment on HOP-62, in the experiment with HCC 2998 and with NCI-H226 was > 10 µM (inactive) each time. Moreover, the GI50 in the experiment on TK-10, with T47D, in the experiment on SK-MEL-5, in the experiment with 786-0, in the experiment with HL-60 and with MDA-MB-231 was > 10 µM (inactive) each time. The GI50 with SK-OV-3 is > 10 µM (inactive); with COLO 205, > 10 µM (inactive); in the experiment on SNB-75 it was > 10 µM (inactive); in the experiment on HT-29 it was > 10 µM (inactive); in the experiment on A549, > 10 µM (inactive); in the experiment on HCT-15, over 10 µM. The GI50 with IGROV-1 and in the experiment with DU-145 was > 10 µM (inactive) in each case.
Take `COc1ccc2c(c1)[nH]c1c3ccc(OC)cc3oc(=O)c21`: the GI50 with ACHN, in the experiment on A498, in the experiment on OVCAR-4, with HOP-62, in the experiment with HCC 2998 and with NCI-H226 was > 100 µM (inactive) in each case. Moreover, the GI50 in the experiment on TK-10 was > 100 µM (inactive); in the experiment with T47D, > 100 µM (inactive); in the experiment with SK-MEL-5 it was > 100 µM (inactive); with 786-0 it was 0.432 µM (active); in the experiment on HL-60 it was 0.867 µM (active); with MDA-MB-231, 92 µM (inactive). Moreover, the GI50 in the experiment on SK-OV-3 was > 100 µM (inactive); in the experiment with COLO 205 it was > 100 µM (inactive); with SNB-75, 25.1 µM (inactive); in the experiment on HT-29 it was > 100 µM (inactive); in the experiment on A549, > 100 µM (inactive); in the experiment with HCT-15, 5.27 µM. The GI50 with IGROV-1 and in the experiment on DU-145 was > 100 µM (inactive) in each case.
For `O=C1CC2CC(CC3(CO3)C2)C1F` (stereo not given), the GI50 in the experiment on ACHN, with A498, in the experiment on OVCAR-4, in the experiment on HOP-62, in the experiment with HCC 2998 and in the experiment with NCI-H226 was > 100 µM (inactive) in each case. Also, the GI50 with TK-10, in the experiment on T47D, in the experiment on SK-MEL-5, with 786-0, in the experiment on HL-60 and in the experiment with MDA-MB-231 was > 100 µM (inactive) each time. For the same compound, the GI50 in the experiment with SK-OV-3 is > 100 µM (inactive); with COLO 205, > 100 µM (inactive); with SNB-75, 48.2 µM (inactive); with HT-29, > 100 µM (inactive); in the experiment with A549, > 100 µM (inactive); in the experiment with HCT-15, over 100 µM. For the same compound, the GI50 with IGROV-1 and with DU-145 was > 100 µM (inactive) in each case.

These data come from ChEMBL document CHEMBL1201862, “PubChem BioAssay data set” (2004).
